# Experimental data as given in patent publication US20100120787A1, “MODIFICATION OF AMYLOID-BETA LOAD IN NON-BRAIN TISSUE” (MODGENE, LLC, priority 2008, published 2010).
# Read-outs that look alike come from different tables or passages of the source.
# Tests used:
# Notch signaling = conditions: while reducing Aβ production; cited from earlier work
# Aβ accumulation in brain = conditions: intrathecal delivery by osmotic minipumps, guinea pigs; cited from earlier work
# [1] = test system: primary neurons prepared from cerebral cortex; conditions: embryonic day 18 rats; cited from earlier work
# [2] = humans; cited from earlier work
# [3] = pH 8; cited from earlier work
# [4] = cited from earlier work
# Aβ hexamers in plasma = test: Plasma (blood) Aβ levels in mice after intraperitoneal STI-571, Western blot/ELISA; format: in vivo, mouse
# Procedure: […]. Wild-type C57Bl/6 and DBA/2J male mice (age 8-12 weeks) were administered drug or vehicle twice daily for 7 days by intraperitoneal injection. […]. […] See, for example, Gleevec Prescribing Information 2003 revision T2003-09; Printed in U.S.A. 89019001 (Novartis), incorporated herein by reference.
# Animals were sacrificed 12 hr after the last injection. Individual mice were anesthetized with isoflurane and blood samples (100-300ul) taken by cardiac puncture with heparinized syringes. Samples were placed on ice for 30 minutes in the presence of EDTA and then centrifuged for 20 minutes at 16,000×g at 4° C. The plasma fraction was removed and stored at −80° C. Brains were removed and frozen rapidly on dry ice and stored at −80° C.
# Detection of mouse Aβ1-40 in blood and brain samples was performed by using a commercially available immunoassay kit (Biosource mouse Aβ1-40, Catalog No. KMB3481, Invitrogen, Carlsbad, Calif.) or by Western blot. Mouse brain samples were prepared by homogenizing brain tissue in a polytron in the presence of 5M guanidine HCl and 50 mM Tris HCl, pH 8.0 as described in the assay protocol. […]
# Blood samples were diluted 1:5 in standard diluent buffer. Samples were assayed in duplicate and OD450 measured on a Tecan infinite 2000 plate reader. […]
# [5] = cited from earlier work; remark: listed apart in the source
# [6] = statement in words, cited from earlier work
molecule,measurement,setting,value
"6-(2,6-dichlorophenyl)-8-methyl-2-(methylsulfanylphenyl-amino)-8H-pyrido[2,3-d]pyrimidin-7-one [inhibitor 2]",effect on Notch signaling,Notch signaling,without affecting Notch signaling
same,Aβ accumulation in brain,Aβ accumulation in brain,decrease in Aβ accumulation in brain
same,production of Aβ,[1],reduce production of Aβ
"COc1cc([S+](C)[O-])ccc1-c1nc2ncccc2[nH]1 (centres unmarked) [ARL115, sulmazole]",CNS side effects,[2],lack the CNS side effects
same,log P,[3],1.17
COc1ccc(-c2nc3ncccc3[nH]2)c(OC)c1.Cl [ARL-57],CNS side effects,[2],spectacular bright color vision
same,log P,[3],2.59
Cc1ccc(NC(=O)c2ccc(CN3CCNCC3)cc2)cc1Nc1nccc(-c2cccnc2)n1 [N-desmethyl derivative],plasma AUC of metabolite relative to the AUC for imatinib,[4]; humans,about 15%
same,elimination half-life,[4]; oral administration in healthy volunteers,~40 h
Cc1ccc(NC(=O)c2ccc(CN3CCN(C)CC3)cc2)cc1Nc1nccc(-c2cccnc2)n1 [STI-571],reduction of plasma levels of Aβ,"Aβ hexamers in plasma; 20 mg/kg IP twice daily for 7 days, B6 mice",approximately 50%
same,reduction of circulating Aβ,"Aβ hexamers in plasma; highest dose (100 mg/kg) IP twice daily for 7 days, young D2 mice",approximately 75%
same,absorption after oral administration,"[5]; human, in vivo, po",rapidly absorbed
same,mean AUC versus dose,"[5]; human, in vivo",did not increase proportionally with increasing dose
same,Cmax (time),"[5]; pediatric patients, oral",2 to 4 h
same,penetration of the blood-brain barrier,[6],poor penetration of the blood-brain barrier
same,penetration of the blood-brain barrier,[6]; listed as GLEEVEC/STI-571,poor penetration of the blood-brain barrier
same,penetration of the blood-brain barrier,[6]; listed as imatinib,does not substantially penetrate the blood brain barrier
